Experiment [1] concerns HT-29. As to the kind of experiment: Antiproliferative activity against human HT-29 cells after 72 hrs by MTT assay. The class given is functional, cell-based. The note with it: HT-29, 72 h. (In general: Tetrazolium assays rely on reduction of a dye to a coloured formazan, in cell work by metabolically active cells.)
Experiment [2] concerns HT-29. As to the kind of experiment: Antiproliferative activity against human HT-29 cells after 96 hrs by MTT assay. The class given is functional, cell-based. The note with it: HT-29, 96 h.
A further experiment concerns MCF7. Nature of the experiment: Antiproliferative activity against human MCF7 cells after 48 hrs by MTT assay. The class given is functional, cell-based. The note with it: MCF7, 48 h.
In experiment [3] the test system is HEK293. Nature of the experiment: Antiproliferative activity against human HEK293 cells incubated with 2000 cells per well after 48 hrs by MTT assay. The class given is cell-based. The note with it: HEK293, 48 h.
The test system of experiment [4] is Jurkat. Nature of the experiment: Induction of reactive oxygen species in human Jurkat cells after 48 hrs by flow cytometry analysis. The class given is functional, cell-based.
In experiment [5] the test system is K562. Nature of the experiment: Induction of reactive oxygen species in human K562 cells after 48 hrs by flow cytometry analysis. The class given is functional, cell-based. (In general: In flow cytometry, cells or beads pass a laser one at a time.)
In experiment [6] the test system is Jurkat. As to the kind of experiment: Induction of apoptosis in human Jurkat cells assessed as early apoptotic cells at 25 uM after 48 hrs by annexin-V-FITC/PI staining based flow cytometry. The class given is functional, cell-based.
In experiment [7] the test system is K562. As to the kind of experiment: Induction of apoptosis in human K562 cells assessed as early apoptotic cells at 25 uM after 48 hrs by annexin-V-FITC/PI staining based flow cytometry. The class given is functional, cell-based.
For experiment [8], the system named is Jurkat. Nature of the experiment: Induction of apoptosis in human Jurkat cells assessed as late apoptotic cells at 25 uM after 48 hrs by annexin-V-FITC/PI staining based flow cytometry. The class given is functional, cell-based.
Experiment [9] deals with K562. Nature of the experiment: Induction of apoptosis in human K562 cells assessed as late apoptotic cells at 25 uM after 48 hrs by annexin-V-FITC/PI staining based flow cytometry. The class given is functional, cell-based.
Experiment [10] has as its system K562. As to the kind of experiment: Induction of apoptosis in human K562 cells assessed as early apoptotic cells at 10 uM after 48 hrs by annexin-V-FITC/PI staining based flow cytometry. The class given is functional, cell-based.
Experiment [11] concerns Jurkat. Nature of the experiment: Induction of apoptosis in human Jurkat cells assessed as early apoptotic cells at 10 uM after 48 hrs by annexin-V-FITC/PI staining based flow cytometry. The class given is functional, cell-based.
For another experiment, the species on record is Mus musculus. As to the kind of experiment: Induction of apoptosis in C57BL/6 mouse liver mitochondrial assessed as cytochrome c release after 1 hr by immunoblotting method. The class given is functional. The note with it: Mitochondria. Background: Immunoblotting shows a protein as a band on a membrane.
The test system of experiment [12] is Jurkat. As to the kind of experiment: Induction of apoptosis in human Jurkat cells assessed as increase in cleaved PARP-1 level at 20 uM after 48 hrs by immunoblotting. The class given is functional, cell-based.
Experiment [13] deals with HEK293. As to the kind of experiment: Antiproliferative activity against human HEK293 cells incubated with 3000 cells per well after 48 hrs by MTT assay. The class given is cell-based. The note with it: HEK293, 48 h.
The next experiment deals with HepG2. Nature of the experiment: Antiproliferative activity against human HepG2 cells after 48 hrs by MTT assay. The class given is functional, cell-based. The note with it: HepG2, 48 h.
Experiment [14] relates to K562. Nature of the experiment: Induction of reactive oxygen species in human K562 cells at >= 50 uM after 48 hrs by flow cytometry analysis. The class given is functional, cell-based.
Experiment [15] deals with Jurkat. Nature of the experiment: Induction of reactive oxygen species in human Jurkat cells at >= 50 uM after 48 hrs by flow cytometry analysis. The class given is functional, cell-based.
Experiment [16] concerns Jurkat. As to the kind of experiment: Induction of apoptosis in human Jurkat cells after 48 hrs at 50 uM by annexin-V-FITC/PI staining based flow cytometry. The class given is functional, cell-based.
Experiment [17] relates to K562. As to the kind of experiment: Induction of apoptosis in human K562 cells after 48 hrs at 50 uM by annexin-V-FITC/PI staining based flow cytometry. The class given is functional, cell-based.
Experiment [18] concerns Jurkat. Nature of the experiment: Induction of apoptosis in human Jurkat cells assessed as increase in cleaved PARP-1 level at 50 and 100 uM after 48 hrs by immunoblotting. The class given is functional, cell-based.

Activity calls are given as the source filed them. The calls are words filed in the database; no cut-off is given here.

For the molecule `Clc1ccc2[nH]c3snnc3c2c1`, the EC50 in the experiment with HT-29 [1] was 26.2 µM; in the experiment on HT-29 [2], 33.8 µM; in the experiment with MCF7, 31.2 µM; in the experiment on HEK293 [3] it was 24.4 µM. In addition, the Activity result in the experiment with Jurkat [4] and with K562 [5] was “Dose-dependent effect” each time. In addition, the result with Jurkat [6], in the experiment with K562 [7], with Jurkat [8] and with K562 [9] was Active.
As for `COc1ccc(S(=O)(=O)n2c3ccccc3c3nnsc32)cc1`, the concentration giving a half-maximal response (EC50) stood at 7.97 µM with HT-29 [1]; 6.97 µM in the experiment with HT-29 [2]; 12.9 µM in the experiment with MCF7; 15.3 µM in the experiment on HEK293 [3]; 12.3 µM in the experiment on HEK293 [13]. Besides, the outcome with K562 [10], in the experiment on Jurkat [11] and with Jurkat [12] was Active. For the same molecule, the Activity entry in the experiment with Jurkat [4] and in the experiment on K562 [5] was “Dose-dependent effect” in each case. In the experiment listed under Mus musculus, the outcome was inactive.
Regarding `O=C(c1ccc(Cl)cc1)n1c2ccccc2c2nnsc21`, the figures for the EC50 in the experiment with HT-29 [1], in the experiment with HT-29 [2] and with HepG2 were 49.4 µM, 52.3 µM and 60.2 µM, respectively. Moreover, the result with K562 [14], in the experiment with Jurkat [15], in the experiment on Jurkat [16], with K562 [17] and with Jurkat [18] was Active. Further, the outcome in the experiment listed under Mus musculus was inactive.

Broadly, the EC50 is the concentration at which the effect is half-maximal.

The values above are taken from ChEMBL document CHEMBL3751788, “The new facile and straightforward method for the synthesis of 4H-1,2,3-thiadiazolo[5,4-b]indoles and determination of their antiproliferative activity” (Eur J Med Chem, 2016).
